The target of test [1] is T1, HIV-1 RT double mutant K103N/Y181C (Human immunodeficiency virus type 1 group M subtype B, UniProt P03366, K702N/Y780C).
T1 construct: HIV-1 wild type reverse transcriptase as well as the clinically significant double mutant K103N/Y181C
The test can be described thus: biochemical. As to the method:
(§1) Utilizing the Reverse Transcriptase (RT) Assay described below, compounds were tested for their ability to inhibit the RNA-dependent DNA polymerase activity of HIV-1 RT. Certain specific compounds described in the Examples and in Tables 1-4, were so tested. The results of this testing appear in Table 5 as ranges of IC50 (nM) and EC50 (nM).
(§2) Reverse Transcriptase (RT) Assays

The target of test [2] is T2, HIV-1 wild type reverse transcriptase (Human immunodeficiency virus type 1 group M subtype B, UniProt P03366).
T2 construct: HIV-1 wild type reverse transcriptase
Kind of test: biochemical. The settings on record: wild type RT; read-out: IC50 WT RT. As to the method:
as §1, §2

The test system of test [3] is HIV-1 wild type. Kind of test: microbe, parasite or virus in culture. It counts as cell-based.
Test [4] deals with HIV-1 double mutant K103N/Y181C. Kind of test: microbe, parasite or virus in culture. The format is cell-based.
Setting [5] is: Human immunodeficiency virus 1, wild type, read-out: EC50 WT RT.
The mark [6] stands for this setting: Human immunodeficiency virus 1, read-out: EC50 K103N/Y181C (nM).
[7] abbreviates: RT double mutant K103N/Y181C, read-out: IC50 K103N/Y181C.
Setting [8] is: wild type, read-out: EC50 WT RT.
[9] abbreviates: double mutant K103N/Y181C, read-out: EC50 K103N/Y181C.
[10] abbreviates: Human immunodeficiency virus 1, read-out: EC50 WT RT (nM).

Each structure is given as a SMILES string. Like-named read-outs stand apart in the source and are kept apart here.

`CCN1c2ncc(CCOc3ccc(-c4csc(N)n4)cc3C)cc2C(=O)N(C)c2cccnc21` [Entry 1093, 8-{2-[4-(2-Amino-4-thiazolyl)-2-methylphenoxy]ethyl}-11-ethyl-5,11-dihydro-5-methyl-6H-dipyrido[3,2-b:2′,3′-e][1,4]diazepin-6-one]: the IC50 in test [1] and in test [2] was below 50 nM in each case. Besides, the EC50 in test [3] (setting [5]) and in test [4] (setting [6]) was below 10 nM in each case.

On to `CCN1c2ncc(CCOc3ccc(-c4c[nH]cn4)cc3C)cc2C(=O)N(C)c2cccnc21` [Entry 1094, 11-Ethyl-5,11-dihydro-8-{2-[4-(1H-imidazol-4-yl)-2-methylphenoxy]ethyl}-5-methyl-6H-dipyrido[3,2-b:2′,3′-e][1,4]diazepin-6-one], for which the IC50 in test [1] and in test [2] was below 50 nM each time. Moreover, the EC50 in test [3] (setting [5]) and in test [4] (setting [6]) was below 10 nM throughout.

Take `CCN1c2ncc(CCOc3ccc(-c4cn(C)cn4)cc3C)cc2C(=O)N(C)c2cccnc21` [Entry 1095, 11-Ethyl-5,11-dihydro-5-methyl-8-{2-[2-methyl-4-(1-methyl-1H-imidazol-4-yl)phenoxy]ethyl}-6H-dipyrido[3,2-b:2′,3′-e][1,4]diazepin-6-one]: the IC50 in test [1] and in test [2] was below 50 nM throughout. For the same compound, the EC50 in test [3] (setting [5]) and in test [4] (setting [6]) was below 10 nM in each case.

In the case of `CCN1c2ncc(CCOc3ccc(-c4cocn4)cc3C)cc2C(=O)N(C)c2cccnc21` [Entry 1099, 11-Ethyl-5,11-dihydro-5-methyl-8-{2-[2-methyl-4-(4-oxazolyl)phenoxy]ethyl}-6H-dipyrido[3,2-b:2′,3′-e][1,4]diazepin-6-one], the IC50 in test [1] and in test [2] was below 50 nM throughout. Besides, the EC50 in test [3] (setting [5]) and in test [4] (setting [6]) was below 10 nM throughout.

As for `CCN1c2ncc(CCOc3ccc(-c4ccccc4)cc3)cc2C(=O)N(C)c2cccnc21` [Entry 1101], the IC50 is 50 to 100 nM in test [1] (setting [7]) and below 50 nM in test [2]. Moreover, the EC50 in test [3] (setting [8]) was below 10 nM; in test [4] (setting [9]), above 50 nM.

Take `CCN1c2ncc(CCOc3ccc(-c4ccc(CC(=O)O)cc4)cc3CO)cc2C(=O)N(C)c2cccnc21` [Entry 1104]: the IC50 in test [1] (setting [7]) and in test [2] was below 50 nM throughout. Besides, the EC50 in test [3] (setting [8]) is below 10 nM; in test [4] (setting [9]) it was 10 to 50 nM.

Turning to `CCN1c2ncc(CCOc3ccc(C(=O)Nc4ccc(C(=O)O)cc4)cc3C)cc2C(=O)N(C)c2cccnc21` [Entry 3001, 4-{{4-[2-(11-Ethyl-6,11-dihydro-5-methyl-6-oxo-5H-dipyrido[3,2-b:2′,3′-e][1,4]diazepin-8-yl)ethoxy]-3-methylbenzoyl}amino}benzoic acid], the IC50 in test [1] and in test [2] was below 50 nM throughout. Besides, the EC50 in test [3] (setting [10]) is below 10 nM; in test [4] (setting [6]), 10 to 50 nM.

On to `CCN1c2ncc(CCOc3ccc(C(=O)Nc4cc[n+]([O-])cc4)cc3C)cc2C(=O)N(C)c2cccnc21` [Entry 3004, 4-[2-(11-Ethyl-6,11-dihydro-5-methyl-6-oxo-5H-dipyrido[3,2-b:2′,3′-e][1,4]diazepin-8-yl)ethoxy]-3-methyl-N-(1-oxido-4-pyridinyl)benzamide], for which the IC50 in test [1] and in test [2] was below 50 nM in each case. Further, the EC50 in test [3] (setting [5]) and in test [4] (setting [6]) was below 10 nM throughout.

For `CCN1c2ncc(CCOc3ccc(C(=O)Nc4ccc(CC(=O)O)cc4)cc3C)cc2C(=O)N(C)c2cccnc21` [Entry 3005], the IC50 in test [1] and in test [2] was below 50 nM in each case. Also, the EC50 is below 10 nM in test [3] (setting [10]) and 10 to 50 nM in test [4] (setting [6]).

With `CCN1c2ncc(CCOc3ccc(C(=O)Nc4nc(CC(=O)O)cs4)cc3C)cc2C(=O)N(C)c2cccnc21` [Entry 3007], the IC50 in test [1] and in test [2] was below 50 nM in each case. The EC50 in test [3] (setting [5]) was 10 to 50 nM; in test [4] (setting [6]), above 50 nM.

For `CCN1c2ncc(CCOc3ccc(C(=O)NS(=O)(=O)c4ccccc4)cc3C)cc2C(=O)N(C)c2cccnc21` [Entry 3009], the IC50 in test [1] was above 100 nM; in test [2] it was below 50 nM. Further, the EC50 was 10 to 50 nM in test [3] (setting [10]) and above 50 nM in test [4] (setting [6]).

Turning to `CCN1c2ncc(CCOc3ccc(C(=O)Nc4cccc(CC(=O)O)c4)cc3C)cc2C(=O)N(C)c2cccnc21` [Entry 3010], the IC50 in test [1] and in test [2] was below 50 nM throughout. In addition, the EC50 in test [3] (setting [10]) and in test [4] (setting [6]) was 10 to 50 nM each time.

In the case of `CCN1c2ncc(CCOc3ccc(C(=O)Nc4ccccc4C(=O)O)cc3C)cc2C(=O)N(C)c2cccnc21` [Entry 3011], the IC50 in test [1] was above 100 nM; in test [2], below 50 nM. The EC50 is 10 to 50 nM in test [3] (setting [10]) and above 50 nM in test [4] (setting [6]).

With `CCN1c2ncc(CCOc3ccc(C(=O)Nc4cccn(CC(=O)O)c4=O)cc3C)cc2C(=O)N(C)c2cccnc21` [Entry 3012], the IC50 is 50 to 100 nM in test [1] and below 50 nM in test [2]. In addition, the EC50 in test [3] (setting [5]) and in test [4] (setting [6]) was above 50 nM throughout.

On to `CCN1c2ncc(CCOc3ccc(C(=O)Nc4ccc(C(=O)O)cc4)cc3C)cc2C(=O)Nc2c(C)ccnc21` [Entry 3017], for which the IC50 in test [1] (setting [7]) and in test [2] was below 50 nM each time. The EC50 is 10 to 50 nM in test [3] (setting [8]) and above 50 nM in test [4] (setting [9]).

Take `CCN1c2ncc(CCOc3ccc(C(=O)Nc4ccc(CC(=O)O)cc4)cc3C)cc2C(=O)Nc2c(C)ccnc21` [Entry 3018]: the IC50 in test [1] and in test [2] was below 50 nM throughout. The EC50 is 10 to 50 nM in test [3] (setting [10]) and above 50 nM in test [4] (setting [6]).

`CCN1c2ncc(CCOc3ccc(C(=O)Nc4cccc[n+]4[O-])cc3C)cc2C(=O)Nc2c(C)ccnc21` [Entry 3019]: the IC50 in test [1] (setting [7]) is 50 to 100 nM; in test [2] it was below 50 nM. Also, the EC50 in test [3] (setting [8]) and in test [4] (setting [9]) was below 10 nM throughout.

For `CCN1c2ncc(CCOc3ccc(C(=O)Nc4ccc[n+]([O-])c4)cc3C)cc2C(=O)Nc2c(C)ccnc21` [Entry 3020], the IC50 in test [1] (setting [7]) and in test [2] was below 50 nM each time. The EC50 in test [3] (setting [8]) and in test [4] (setting [9]) was below 10 nM each time.

With `CCN1c2ncc(CCOc3ccc(C(=O)Nc4cccnc4O)cc3C)cc2C(=O)N(C)c2cccnc21` [Entry 3021], the IC50 in test [1] and in test [2] was below 50 nM throughout. Also, the EC50 in test [3] (setting [5]) and in test [4] (setting [6]) was below 10 nM throughout.

Take `CCN1c2ncc(CCOc3ccc(Nc4ccc(C(=O)O)cc4)cc3C)cc2C(=O)N(C)c2cccnc21` [Entry 3022, 4-{{4-[2-(11-Ethyl-6,11-dihydro-5-methyl-6-oxo-5H-dipyrido[3,2-b:2′,3′-e][1,4]diazepin-8-yl)ethoxy]-3-methylphenyl}amino}benzoic acid]: the IC50 in test [1] and in test [2] was below 50 nM throughout. Moreover, the EC50 in test [3] (setting [10]) is below 10 nM; in test [4] (setting [6]) it was 10 to 50 nM.

Regarding `CCN1c2ncc(CCOc3ccc(Nc4cccc(CC(=O)O)c4)cc3C)cc2C(=O)N(C)c2cccnc21` [Entry 3024], the IC50 in test [1] and in test [2] was below 50 nM throughout. Also, the EC50 in test [3] (setting [10]) and in test [4] (setting [6]) was below 10 nM each time.

`CCN1c2ncc(CCOc3ccc(C(=O)c4ccc(C(=O)O)cc4)cc3C)cc2C(=O)N(C)c2cccnc21` [Entry 3027]: the IC50 was 50 to 100 nM in test [1] and below 50 nM in test [2]. Moreover, the EC50 was below 10 nM in test [3] (setting [10]) and 10 to 50 nM in test [4] (setting [6]).

For the compound `CCN1c2ncc(CCOc3ccc(S(=O)(=O)Nc4ccc(C(=O)O)cc4)cc3C)cc2C(=O)N(C)c2cccnc21` [Entry 3030], the IC50 in test [1] (setting [7]) and in test [2] was below 50 nM throughout. Also, the EC50 in test [3] (setting [8]) and in test [4] (setting [9]) was above 50 nM throughout.

For `CCN1c2ncc(CCOc3ccc(NC(=O)Nc4ccc(C(=O)O)cc4)cc3C)cc2C(=O)N(C)c2cccnc21` [Entry 3031], the IC50 in test [1] and in test [2] was below 50 nM in each case. The EC50 in test [3] (setting [10]) was 10 to 50 nM; in test [4] (setting [6]), above 50 nM.

For `CCN1c2ncc(CCOc3ccc(NC(=O)c4ccc(C(=O)O)cc4)cc3C)cc2C(=O)N(C)c2cccnc21` [Entry 3032], the IC50 in test [1] and in test [2] was below 50 nM each time. Also, the EC50 is 10 to 50 nM in test [3] (setting [10]) and above 50 nM in test [4] (setting [6]).

Consider `CCN1c2ncc(CCOc3ccc(NC(=O)c4ccccc4C(=O)O)cc3C)cc2C(=O)N(C)c2cccnc21` [Entry 3033], for which the values for the IC50 in test [1] and in test [2] were above 100 nM and below 50 nM, respectively. In addition, the EC50 in test [3] (setting [10]) was below 10 nM; in test [4] (setting [6]), 10 to 50 nM.

Regarding `CCN1c2ncc(CCOc3ccc(NC(=O)CCC(=O)O)cc3C)cc2C(=O)N(C)c2cccnc21` [Entry 4006], the IC50 is 50 to 100 nM in test [1] and below 50 nM in test [2]. The figures for the EC50 in test [3] (setting [5]) and in test [4] (setting [6]) were 10 to 50 nM and above 50 nM, respectively.

As to `CCN1c2ncc(CCOc3ccc(NC(=O)CC4(C(=O)O)CCCC4)cc3C)cc2C(=O)N(C)c2cccnc21` [Entry 4007], the IC50 in test [1] is above 100 nM; in test [2] it was below 50 nM. In addition, the EC50 in test [3] (setting [5]) and in test [4] (setting [6]) was below 10 nM in each case.

As for `CCN1c2ncc(CCOc3ccc(NC(=O)CC(C)(C)C(=O)O)cc3C)cc2C(=O)N(C)c2cccnc21` [Entry 4008], the IC50 in test [1] is above 100 nM; in test [2], below 50 nM. Also, the figures for the EC50 in test [3] (setting [5]) and in test [4] (setting [6]) were below 10 nM and 10 to 50 nM, respectively.
